Source: the NIST ThermoML archive (doi:10.1016/j.jct.2010.08.010)

Settings: Liquid, Buoyancy - hydrostatic balance with magnetic suspension - one sinker

Cc1ccccc1 [toluene]
Settings	mass density [kg/m3]
333.15 K, 9960.3 kPa	838.314
333.15 K, 12120 kPa	840.218
333.15 K, 14111 kPa	841.938
333.15 K, 15857 kPa	843.417
333.15 K, 18129 kPa	845.312
333.15 K, 19860 kPa	846.724
333.15 K, 22144 kPa	848.558
333.15 K, 24050 kPa	850.059
333.15 K, 25886 kPa	851.479
333.15 K, 28037 kPa	853.128
333.15 K, 29895 kPa	854.529
353.15 K, 100.22 kPa	809.674
353.15 K, 1169.9 kPa	810.881
353.15 K, 2003.6 kPa	811.814
353.15 K, 4142.5 kPa	814.153
353.15 K, 6005.5 kPa	816.142
353.15 K, 8141.3 kPa	818.365
353.15 K, 10004 kPa	820.255
353.15 K, 12008 kPa	822.24
353.15 K, 14198 kPa	824.368
353.15 K, 16142 kPa	826.212
353.15 K, 18101 kPa	828.027
353.15 K, 19917 kPa	829.683
353.15 K, 22138 kPa	831.662
353.15 K, 24034 kPa	833.323
353.15 K, 26059 kPa	835.06
353.15 K, 28105 kPa	836.785
353.15 K, 29954 kPa	838.316
373.15 K, 1259.9 kPa	791.299
373.15 K, 2065.8 kPa	792.34
373.15 K, 3870.7 kPa	794.611
373.15 K, 6198.3 kPa	797.456
373.15 K, 8095.9 kPa	799.709
373.15 K, 9917.3 kPa	801.809
373.15 K, 12114 kPa	804.274
373.15 K, 13934 kPa	806.263
373.15 K, 16020 kPa	808.493
373.15 K, 18023 kPa	810.573
373.15 K, 19927 kPa	812.508
373.15 K, 22108 kPa	814.677
373.15 K, 23970 kPa	816.486
373.15 K, 25950 kPa	818.372
373.15 K, 27874 kPa	820.167
373.15 K, 29907 kPa	822.029
393.15 K, 1097.4 kPa	770.672
393.15 K, 1998.7 kPa	772.03
393.15 K, 4084.6 kPa	775.078
393.15 K, 6214.8 kPa	778.084
393.15 K, 8059.3 kPa	780.589
393.15 K, 9988.4 kPa	783.137
393.15 K, 12134 kPa	785.871
393.15 K, 14051 kPa	788.257
393.15 K, 16078 kPa	790.683
393.15 K, 18012 kPa	792.945
393.15 K, 19811 kPa	794.994
393.15 K, 22110 kPa	797.55
393.15 K, 23923 kPa	799.514
393.15 K, 25870 kPa	801.576
393.15 K, 27974 kPa	803.747
393.15 K, 29891 kPa	805.692
413.15 K, 1099.1 kPa	749.389
413.15 K, 1960.8 kPa	750.924
413.15 K, 4038.3 kPa	754.503
413.15 K, 6026.6 kPa	757.773
413.15 K, 8189.1 kPa	761.18
413.15 K, 9852 kPa	763.702
413.15 K, 12117 kPa	767.016
413.15 K, 14168 kPa	769.904
413.15 K, 16108 kPa	772.544
413.15 K, 18095 kPa	775.165
413.15 K, 20104 kPa	777.733
413.15 K, 22152 kPa	780.275
413.15 K, 24009 kPa	782.518
413.15 K, 25996 kPa	784.857
413.15 K, 27793 kPa	786.922
413.15 K, 29815 kPa	789.193
433.15 K, 1101.8 kPa	726.984
433.15 K, 1976.7 kPa	728.858
433.15 K, 4084.4 kPa	733.177
433.15 K, 6154.5 kPa	737.18
433.15 K, 8078.7 kPa	740.731
433.15 K, 9952.6 kPa	744.032
433.15 K, 11980 kPa	747.451
433.15 K, 13969 kPa	750.677
433.15 K, 16091 kPa	753.964
433.15 K, 17961 kPa	756.765
433.15 K, 19890 kPa	759.561
433.15 K, 22082 kPa	762.624
433.15 K, 24002 kPa	765.215
433.15 K, 26049 kPa	767.899
433.15 K, 27836 kPa	770.185
433.15 K, 29993 kPa	772.844
453.15 K, 1107.5 kPa	703.102
453.15 K, 2037.8 kPa	705.548
453.15 K, 4185.3 kPa	710.874
453.15 K, 6060.4 kPa	715.218
453.15 K, 8005.2 kPa	719.474
453.15 K, 9870.3 kPa	723.328
453.15 K, 12115 kPa	727.721
453.15 K, 14139 kPa	731.482
453.15 K, 16027 kPa	734.835
453.15 K, 17928 kPa	738.09
453.15 K, 20153 kPa	741.727
453.15 K, 22071 kPa	744.756
453.15 K, 24057 kPa	747.767
453.15 K, 26029 kPa	750.661
453.15 K, 27966 kPa	753.404
453.15 K, 29817 kPa	755.955
473.15 K, 1104.4 kPa	677.2
473.15 K, 2031.3 kPa	680.289
473.15 K, 4033.8 kPa	686.456
473.15 K, 6024.4 kPa	692.111
473.15 K, 7930.8 kPa	697.122
473.15 K, 10107 kPa	702.459
473.15 K, 11931 kPa	706.639
473.15 K, 13959 kPa	711.045
473.15 K, 16004 kPa	715.254
473.15 K, 17878 kPa	718.918
473.15 K, 19844 kPa	722.599
473.15 K, 22088 kPa	726.587
473.15 K, 24074 kPa	729.989
473.15 K, 26038 kPa	733.203
473.15 K, 27840 kPa	736.071
473.15 K, 29806 kPa	739.091
